Test results: patent US10898471B2, “Methods of inhibiting leukotriene A4 hydrolase” (Celltaxis, LLC, priority 2013, dated 2021)

What was measured:
LTA4-h = target: T1, LTA4-h (Homo sapiens, UniProt P09960); assay: human whole blood ex vivo assay: A23187-stimulated LTB4 production measured by ELISA; format: cell-based; conditions: IC50 in human whole blood
T1 construct: in human whole blood has been determined using an ex vivo assay; from tissue; host or cells: human whole blood (male and female donors)
T1 sequence (P09960 1-611): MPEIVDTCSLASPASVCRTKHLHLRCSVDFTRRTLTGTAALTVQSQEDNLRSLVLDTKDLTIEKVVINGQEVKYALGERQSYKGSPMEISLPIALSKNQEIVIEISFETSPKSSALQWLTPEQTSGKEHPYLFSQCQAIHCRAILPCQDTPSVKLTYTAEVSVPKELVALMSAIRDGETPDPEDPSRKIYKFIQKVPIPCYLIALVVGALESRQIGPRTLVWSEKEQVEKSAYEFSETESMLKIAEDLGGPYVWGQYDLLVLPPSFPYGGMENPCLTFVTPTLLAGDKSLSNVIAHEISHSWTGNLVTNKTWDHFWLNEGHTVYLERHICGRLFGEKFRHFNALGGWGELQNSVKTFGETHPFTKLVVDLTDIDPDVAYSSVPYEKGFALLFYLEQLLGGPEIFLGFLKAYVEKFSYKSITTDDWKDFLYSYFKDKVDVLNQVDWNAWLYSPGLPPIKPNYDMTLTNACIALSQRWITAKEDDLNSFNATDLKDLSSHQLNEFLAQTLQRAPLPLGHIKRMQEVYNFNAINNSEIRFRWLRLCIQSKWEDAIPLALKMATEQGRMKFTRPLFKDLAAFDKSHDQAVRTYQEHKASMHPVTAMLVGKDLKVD
Source text: The IC50 of 4-{[(1S,4S)-5-({4-[4-oxazol-2-yl-phenoxy]phenyl}methyl)-2,5-diazabicyclo[2.2.1]heptan-2-yl]methyl}benzoic acid in human whole blood has been determined using an ex vivo assay. The human whole blood assay has been described in Penning et al (2000), Structure and Activity Relationship Studies on 1-[2-(4-Phenylphenoxy)ethyl]pyrrolidone (SC-22716), a Potent Inhibitor of Leukotriene A4 (LTA4) hydrolase, J. Med. Chem. 43: 721-735, the contents of which are expressly incorporated by reference herein. In this assay, LTB4 production is stimulated by addition of calcium ionophone (A23187) in the absence or presence of varied concentrations of 4-{[(1S,4S)-5-({4-[4-oxazol-2-yl-phenoxy]phenyl}methyl)-2,5-diazabicyclo[2.2.1]heptan-2-yl]methyl}benzoic acid. The ability of 4-{[(1S,4S)-5-({4-[4-oxazol-2-yl-phenoxy]phenyl}methyl)-2,5-diazabicyclo[2.2.1]heptan-2-yl]methyl}benzoic acid to reduce is LTB4 production is determined by ELISA. This ELISA assay was performed using the Leukotriene B4 EIA Kit available from Cayman Chemical (Item No. 520111) and the assay was performed according to the manufacturer's instructions.
(§1) Thus, oral human doses as low as 10 mg can provide therapeutic benefit in the current formulation and, with improved formulation, doses as low as 5 mg can achieve therapeutic levels of the compound in blood.

[1] = human pharmacokinetics: plasma concentration over time after oral dose; format: in vivo
Procedure: The two sets of dashed, horizontal lines indicate the plasma concentration that is three-times (3×) the IC50 and the plasma concentration that is one-time (1×) the IC50 of 4-{[(1S,4S)-5-({4-[4-oxazol-2-yl-phenoxy]phenyl}methyl)-2,5-diazabicyclo[2.2.1]heptan-2-yl]methyl}benzoic acid in human blood.
as §1

- IC50 (LTA4-h; female blood): 68 nM
- IC50 (LTA4-h; human whole blood, LTB4 production stimulated by calcium ionophore A23187): ~62.3 nM
- IC50 (LTA4-h; male blood): 60 nM
- peak plasma concentration relative to the IC50 ([1]; 5 mg oral dose): nearly achieves the IC50
- time for which the blood plasma level exceeds the IC50 ([1]; 15 mg oral dose): over 12 hours
- time for which the blood plasma level exceeds 3-times the IC50 ([1]; 50 mg oral dose): over 24 hours
Structure (SMILES): O=C(O)c1ccc(CN2C[C@@H]3C[C@H]2CN3Cc2ccc(Oc3ccc(-c4ncco4)cc3)cc2)cc1 [4-{[(1S,4S)-5-({4-[4-oxazol-2-yl-phenoxy]phenyl}methyl)-2,5-diazabicyclo[2.2.1]heptan-2-yl]methyl}benzoic acid]
